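Compound exposure: 48 hours, 5 concentrations, 96-well plates. TGI marks complete inhibition of growth.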
Key:
Assay in all cases: NCI tumour cell line growth inhibition, 48 h
786-0 renal = system: 786-0 renal
A498 renal = system: A498 renal
A549 NSCLC = system: A549 NSCLC
ACHN renal = system: ACHN renal
CAKI-1 renal = system: CAKI-1 renal
CCRF-CEM leukemia = system: CCRF-CEM leukemia
COLO 205 colon = system: COLO 205 colon
DLD-1 colon = system: DLD-1 colon
DMS 114 small cell lung = system: DMS 114 small cell lung
DMS 273 small cell lung = system: DMS 273 small cell lung
HCC-2998 colon = system: HCC-2998 colon
HCT-116 colon = system: HCT-116 colon
HCT-15 colon = system: HCT-15 colon
HOP-18 NSCLC = system: HOP-18 NSCLC
HOP-62 NSCLC = system: HOP-62 NSCLC
HOP-92 NSCLC = system: HOP-92 NSCLC
HT29 colon = system: HT29 colon
IGROV1 ovarian = system: IGROV1 ovarian
K-562 leukemia = system: K-562 leukemia
KM12 colon = system: KM12 colon
KM20L2 colon = system: KM20L2 colon
LOX IMVI melanoma = system: LOX IMVI melanoma
LXFL 529 NSCLC = system: LXFL 529 NSCLC
M14 melanoma = system: M14 melanoma
M19-MEL melanoma = system: M19-MEL melanoma
MALME-3M melanoma = system: MALME-3M melanoma
MOLT-4 leukemia = system: MOLT-4 leukemia
NCI-H226 lung = system: NCI-H226 lung
NCI-H23 lung = system: NCI-H23 lung
NCI-H460 lung = system: NCI-H460 lung
OVCAR-3 ovarian = system: OVCAR-3 ovarian
OVCAR-4 ovarian = system: OVCAR-4 ovarian
OVCAR-5 ovarian = system: OVCAR-5 ovarian
OVCAR-8 ovarian = system: OVCAR-8 ovarian
RPMI-8226 leukemia = system: RPMI-8226 leukemia
RXF 393 renal = system: RXF 393 renal
RXF-631 renal = system: RXF-631 renal
SF-268 CNS = system: SF-268 CNS
SF-295 CNS = system: SF-295 CNS
SF-539 CNS = system: SF-539 CNS
SK-MEL-28 melanoma = system: SK-MEL-28 melanoma
SK-MEL-5 melanoma = system: SK-MEL-5 melanoma
SK-OV-3 ovarian = system: SK-OV-3 ovarian
SN12C renal = system: SN12C renal
SNB-19 CNS = system: SNB-19 CNS
SNB-75 CNS = system: SNB-75 CNS
SNB-78 CNS = system: SNB-78 CNS
SR leukemia = system: SR leukemia
SW-620 colon = system: SW-620 colon
TK-10 renal = system: TK-10 renal
U251 CNS = system: U251 CNS
UACC-257 melanoma = system: UACC-257 melanoma
UACC-62 melanoma = system: UACC-62 melanoma
UO-31 renal = system: UO-31 renal
BT-549 breast = system: BT-549 breast
EKVX NSCLC = system: EKVX NSCLC
HL-60(TB) leukemia = system: HL-60(TB) leukemia
MCF7 breast = system: MCF7 breast
MDA-MB-231 breast = system: MDA-MB-231 breast
MDA-MB-435 = system: MDA-MB-435
NCI-H522 lung = system: NCI-H522 lung
PC-3 prostate = system: PC-3 prostate
SK-MEL-2 melanoma = system: SK-MEL-2 melanoma
T-47D breast = system: T-47D breast
XF 498 CNS = system: XF 498 CNS
DU-145 prostate = system: DU-145 prostate
HS 578T breast = system: HS 578T breast
MDA-N = system: MDA-N

## COc1cc([C@@H]2OC(=O)C3C2C(=O)O[C@H]3c2ccc(O)c(OC)c2)ccc1O (some centres not stated)
786-0 renal
  TGI: > 100 µM
A498 renal
  TGI: > 100 µM
A549 NSCLC
  TGI: > 100 µM
ACHN renal
  TGI: > 100 µM
CAKI-1 renal
  TGI: > 100 µM
CCRF-CEM leukemia
  TGI: > 100 µM
COLO 205 colon
  TGI: > 100 µM
DLD-1 colon
  TGI: > 100 µM
DMS 114 small cell lung
  TGI: > 100 µM
DMS 273 small cell lung
  TGI: > 100 µM
HCC-2998 colon
  TGI: > 100 µM
HCT-116 colon
  TGI: > 100 µM
HCT-15 colon
  TGI: > 100 µM
HOP-18 NSCLC
  TGI: > 100 µM
HOP-62 NSCLC
  TGI: > 100 µM
HOP-92 NSCLC
  TGI: > 100 µM
HT29 colon
  TGI: > 100 µM
IGROV1 ovarian
  TGI: > 100 µM
K-562 leukemia
  TGI: > 100 µM
KM12 colon
  TGI: > 100 µM
KM20L2 colon
  TGI: > 100 µM
LOX IMVI melanoma
  TGI: > 100 µM
LXFL 529 NSCLC
  TGI: > 100 µM
M14 melanoma
  TGI: > 100 µM
M19-MEL melanoma
  TGI: > 100 µM
MALME-3M melanoma
  TGI: > 100 µM
MOLT-4 leukemia
  TGI: > 100 µM
NCI-H226 lung
  TGI: > 100 µM
NCI-H23 lung
  TGI: > 100 µM
NCI-H460 lung
  TGI: > 100 µM
OVCAR-3 ovarian
  TGI: > 100 µM
OVCAR-4 ovarian
  TGI: > 100 µM
OVCAR-5 ovarian
  TGI: > 100 µM
OVCAR-8 ovarian
  TGI: > 100 µM
RPMI-8226 leukemia
  TGI: > 100 µM
RXF 393 renal
  TGI: > 100 µM
RXF-631 renal
  TGI: > 100 µM
SF-268 CNS
  TGI: > 100 µM
SF-295 CNS
  TGI: > 100 µM
SF-539 CNS
  TGI: > 100 µM
SK-MEL-28 melanoma
  TGI: > 100 µM
SK-MEL-5 melanoma
  TGI: > 100 µM
SK-OV-3 ovarian
  TGI: > 100 µM
SN12C renal
  TGI: > 100 µM
SNB-19 CNS
  TGI: > 100 µM
SNB-75 CNS
  TGI: > 100 µM
SNB-78 CNS
  TGI: > 100 µM
SR leukemia
  TGI: > 100 µM
SW-620 colon
  TGI: > 100 µM
TK-10 renal
  TGI: > 100 µM
U251 CNS
  TGI: > 100 µM
UACC-257 melanoma
  TGI: > 100 µM
UACC-62 melanoma
  TGI: > 100 µM
UO-31 renal
  TGI: > 100 µM

## CN(C)C(=S)/N=c1\ssc(=S)n1Cc1ccco1
786-0 renal
  TGI: > 46.4 µM
A498 renal
  TGI: > 74.2 µM
A549 NSCLC
  TGI: > 100 µM
ACHN renal
  TGI: > 100 µM
BT-549 breast
  TGI: 84.8 µM
CAKI-1 renal
  TGI: > 100 µM
CCRF-CEM leukemia
  TGI: 42.3 µM
COLO 205 colon
  TGI: > 100 µM
DLD-1 colon
  TGI: > 100 µM
DMS 114 small cell lung
  TGI: > 74 µM
DMS 273 small cell lung
  TGI: > 42.2 µM
EKVX NSCLC
  TGI: > 100 µM
HCC-2998 colon
  TGI: > 100 µM
HCT-116 colon
  TGI: > 72 µM
HCT-15 colon
  TGI: > 100 µM
HL-60(TB) leukemia
  TGI: 8.2 µM
HOP-18 NSCLC
  TGI: > 100 µM
HOP-62 NSCLC
  TGI: > 63.1 µM
HOP-92 NSCLC
  TGI: > 100 µM
HT29 colon
  TGI: > 24.4 µM
IGROV1 ovarian
  TGI: > 100 µM
K-562 leukemia
  TGI: > 55.7 µM
KM12 colon
  TGI: > 100 µM
KM20L2 colon
  TGI: > 100 µM
LOX IMVI melanoma
  TGI: > 100 µM
LXFL 529 NSCLC
  TGI: > 100 µM
M14 melanoma
  TGI: > 100 µM
M19-MEL melanoma
  TGI: > 100 µM
MALME-3M melanoma
  TGI: > 100 µM
MCF7 breast
  TGI: > 100 µM
MDA-MB-231 breast
  TGI: 84.2 µM
MDA-MB-435
  TGI: 1.95 µM
MOLT-4 leukemia
  TGI: > 83.7 µM
NCI-H226 lung
  TGI: > 100 µM
NCI-H23 lung
  TGI: 45.6 µM
NCI-H460 lung
  TGI: > 64.8 µM
NCI-H522 lung
  TGI: 2.07 µM
OVCAR-3 ovarian
  TGI: 9.58 µM
OVCAR-4 ovarian
  TGI: 66.8 µM
OVCAR-5 ovarian
  TGI: > 100 µM
OVCAR-8 ovarian
  TGI: > 100 µM
PC-3 prostate
  TGI: > 100 µM
RPMI-8226 leukemia
  TGI: > 100 µM
RXF 393 renal
  TGI: 8.22 µM
RXF-631 renal
  TGI: > 100 µM
SF-268 CNS
  TGI: > 100 µM
SF-295 CNS
  TGI: > 23 µM
SF-539 CNS
  TGI: 7.66 µM
SK-MEL-2 melanoma
  TGI: 30.3 µM
SK-MEL-28 melanoma
  TGI: > 100 µM
SK-MEL-5 melanoma
  TGI: 38.2 µM
SK-OV-3 ovarian
  TGI: > 100 µM
SN12C renal
  TGI: > 100 µM
SNB-19 CNS
  TGI: > 78.4 µM
SNB-75 CNS
  TGI: > 23.9 µM
SNB-78 CNS
  TGI: > 100 µM
SR leukemia
  TGI: > 100 µM
SW-620 colon
  TGI: > 100 µM
T-47D breast
  TGI: > 100 µM
TK-10 renal
  TGI: > 100 µM
U251 CNS
  TGI: > 47.4 µM
UACC-257 melanoma
  TGI: > 100 µM
UACC-62 melanoma
  TGI: > 59.3 µM
UO-31 renal
  TGI: > 100 µM
XF 498 CNS
  TGI: 60.1 µM

## O=C1C(Cl)=C(Cl)C(=O)N1c1ccc(F)cc1
786-0 renal
  TGI: 31 µM
A498 renal
  TGI: > 100 µM
A549 NSCLC
  TGI: > 100 µM
ACHN renal
  TGI: 36.3 µM
BT-549 breast
  TGI: 30.1 µM
CAKI-1 renal
  TGI: 21 µM
CCRF-CEM leukemia
  TGI: 16.5 µM
COLO 205 colon
  TGI: 35.1 µM
DLD-1 colon
  TGI: 41 µM
DMS 114 small cell lung
  TGI: 39.4 µM
DMS 273 small cell lung
  TGI: > 62 µM
DU-145 prostate
  TGI: > 100 µM
EKVX NSCLC
  TGI: 40.6 µM
HCC-2998 colon
  TGI: 48.1 µM
HCT-116 colon
  TGI: > 54.5 µM
HCT-15 colon
  TGI: 34 µM
HL-60(TB) leukemia
  TGI: 11.5 µM
HOP-18 NSCLC
  TGI: 43.1 µM
HOP-62 NSCLC
  TGI: 98.7 µM
HOP-92 NSCLC
  TGI: 35.8 µM
HS 578T breast
  TGI: 55.4 µM
HT29 colon
  TGI: 49.8 µM
IGROV1 ovarian
  TGI: 43.6 µM
K-562 leukemia
  TGI: > 51.1 µM
KM12 colon
  TGI: 50.2 µM
KM20L2 colon
  TGI: 52.8 µM
LOX IMVI melanoma
  TGI: 32.6 µM
LXFL 529 NSCLC
  TGI: 32.1 µM
M14 melanoma
  TGI: 39.5 µM
M19-MEL melanoma
  TGI: 41.8 µM
MALME-3M melanoma
  TGI: 32.5 µM
MCF7 breast
  TGI: 42.9 µM
MDA-MB-231 breast
  TGI: 33 µM
MDA-MB-435
  TGI: 34.9 µM
MDA-N
  TGI: 48.7 µM
MOLT-4 leukemia
  TGI: 34.8 µM
NCI-H226 lung
  TGI: > 77.7 µM
NCI-H23 lung
  TGI: 36.9 µM
NCI-H460 lung
  TGI: > 100 µM
NCI-H522 lung
  TGI: 5.95 µM
OVCAR-3 ovarian
  TGI: 32.4 µM
OVCAR-4 ovarian
  TGI: 23.8 µM
OVCAR-5 ovarian
  TGI: 41 µM
OVCAR-8 ovarian
  TGI: 45.1 µM
PC-3 prostate
  TGI: 29.8 µM
RPMI-8226 leukemia
  TGI: 59.7 µM
RXF 393 renal
  TGI: 38.5 µM
RXF-631 renal
  TGI: > 72.6 µM
SF-268 CNS
  TGI: > 77.3 µM
SF-295 CNS
  TGI: > 100 µM
SF-539 CNS
  TGI: 51.9 µM
SK-MEL-2 melanoma
  TGI: > 72.8 µM
SK-MEL-28 melanoma
  TGI: 37.1 µM
SK-MEL-5 melanoma
  TGI: > 67.9 µM
SK-OV-3 ovarian
  TGI: > 69.2 µM
SN12C renal
  TGI: 34.9 µM
SNB-19 CNS
  TGI: > 73.2 µM
SNB-75 CNS
  TGI: 20.8 µM
SNB-78 CNS
  TGI: 71.3 µM
SR leukemia
  TGI: 47.2 µM
SW-620 colon
  TGI: 34.1 µM
T-47D breast
  TGI: 51.2 µM
TK-10 renal
  TGI: 35.1 µM
U251 CNS
  TGI: 53.2 µM
UACC-257 melanoma
  TGI: > 100 µM
UACC-62 melanoma
  TGI: 31.7 µM
UO-31 renal
  TGI: 48.8 µM
XF 498 CNS
  TGI: 34.9 µM

Reference: PubChem BioAssay (NCI)
